# Results reported in patent US20120128630A1, “1-(6 MEMBERS AZO-HETEROCYCLIC)-PYRROLIN-2-ONE COMPOUNDS AS INHIBITORS OF HEPATITIS C NS5B POLYMERASE, THE PHARAMACEUTICAL COMPOSITION THEREOF AND THEIR THERAPEUTIC USE” (priority 2009, published 2012).
# Where two headings read alike, the source gives them in different places.
# Columns and labels:
# HCV NS5B genotype 1b = molecular target: T1, HCV NS5B genotype 1b (Hepatitis C virus genotype 1b, UniProt Q9WMX2); assay: 3D-SCREEN assay (NS5B 3D-Screen platform, luciferase reporter gene); type: cell-based
# T1 construct: The protein was expressed with a 21 amino acid C-terminal deletion to remove transmembrane domain; expressed in transfected cells; host or cells: Huh-7
# In short: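 Huh-7 cells transiently co-transfected with NS5BΔ21/Gal4-DBD, 3D-Sensor peptide I4/VP16 and firefly luciferase reporter. Compounds added 2 h after seeding, 1% DMSO final, 24 h incubation. Luciferase luminescence read; % inhibition relative to no-compound signal.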
# HCV replicon Luc Neo ET = assay: Luc Neo ET Replicon assay; type: cell-based, Hepatitis C virus; conditions: Table 3, titled RdRp enzyme assay results, EC50_Replicon LucneoET, 72 hours with compound, luciferase
# Method: Human Hepatoma Huh-7 cell line was maintained in DMEM/HAMF-12 supplemented with 10% SVF, 4 mM glutamine, […] Na pyruvate, 1% penistreptomycine. HCV replicon containing Huh-7 cell lines Huh-9.13 and Luc Neo ET (Reblikon) were maintained in DMEM supplemented with 10% SVF, 2 mM glutamine, and 1×NEAA, 100 U/ml penicillin, and 100 μg/ml streptomycine. Replicon cells were maintained in medium supplemented with 1 mg/ml G418 for replicon Huh-9.13 and 0.5 mg/ml for Luc Neo et replicon unless indicated otherwise. Huh-7 and HCV replicon cell lines were maintained at 37° C. and 5% CO2 in a humidified atmosphere. Cells were dissociated at sub confluence with trypsin EDTA 1×.
# Replicon Luc Neo ET is a bicistronic expression constructs (Lohmann et al, 1999, Science 285, 110-113). In brief, the structural genes of the HCV genome were replaced by heterologous sequences; the gene encoding the neomycin phosphotransferase (NPT) and the internal ribosome entry site (IRES) of the encephalomyocarditis virus (EMCV). The bicistronic construct is therefore composed of the following elements: HCV-IRES nucleotides 1-389, the NPT gene, the EMCV-IRES directing translation of downstream HCV sequences from NS2 or NS3 up to the authentic 3′ end of the genome. HCV Polyprotein harbours the cell culture adaptive mutations E1202G, T1280I, K1846T. G418-resistance is only possible with cells containing high amounts of replicon.
# Cells were dissociated the day before addition of compounds and seeded in 96 well-plates at a final concentration of 77 777.77 cells.ml^−1.well^−2 in 90 μl final volume of culture medium per well and were maintained at 37° C. and 5% CO2 in a humidified atmosphere for 24 hours. 10 μl of compounds to be tested were added 24 hours after seeding. Final concentration of DMSO was 1%. Cells were incubated in the presence of compounds for 72 hours after which expression of firefly luciferase reporter gene was quantified. Briefly, culture medium was removed and cells were lysed by addition of 100 μl of lysis buffer containing 125 mM Tris Phosphate ph 7.8, 10 mM EDTA, 5 mM DTT, 50% glycerol and 5% Triton. Plates were vortexed 10 min at 1300 rpm. Cell lysat was transferred in OpaqueWhite Assay 96 well Flat Bottom plates. 100 μl of luciferin solution 1× were added to each well. Luciferin solution contained 40 mM Tris Phosphate ph 7.8, 0.2 mM EDTA, 67 mM DTT, 2.14 mM MgCl2, 5.4 mM MgSO4, 4.7×10^−4 M luciferin, 5.3×10^−4 M ATP and 2.7×10^−4 M Acetyl co enzyme A. Luminescence was immediately measured with Berthold Microlumat Plus LB 96V luminometer with an integration of 0.5 sec Inhibition was calculated using the formula:
# % inhibition=1−[(RLUsample−RLUbackground)/(RLUsignal−RLUbackground)]
# [1] = EC50_3DS_NS5B, Table 1, 3D-SCREEN assay results, Huh-7 cells, 24 hours with compound, firefly luciferase reporter
# [2] = EC50_3DS_NS5B, Table 2, titled Replicon assay results
SMILES,melting point [°C],EC50 (HCV NS5B genotype 1b; [1]) [µM],"EC50 (HCV replicon Luc Neo ET; Hepatitis C virus, 72 h) [µM]",EC50 (HCV NS5B genotype 1b; [2]) [µM],"EC50 (HCV NS5B genotype 1b; read-out: EC50_3DS_NS5B, Table 2, titled Replicon assay results) [µM]",EC50 (HCV replicon Luc Neo ET) [µM]
"Cc1ccc(C(=O)C2=C(O)C(=O)N(c3ccc(C)nn3)C2c2ccc(C(C)C)cc2)cc1 (stereo not shown) [Example 8, 3-hydroxy-5-(4-isopropyl-phenyl)-4-(4-methyl-benzoyl)-1-(6-methyl-pyridazin-3-yl)-1,5-dihydro-pyrrol-2-one]",279,2,3,–,–,–
"Cc1ccc(N2C(=O)C(O)=C(C(=O)c3ccc(C(C)C)cc3)C2c2ccc(C(C)C)cc2)nn1 (stereo not shown) [Example 20, 3-hydroxy-4-(4-isopropyl-benzoyl)-5-(4-isopropyl-phenyl)-1-(6-methyl-pyridazin-3-yl)-1,5-dihydro-pyrrol-2-one]",271,0.4,0.1,–,–,–
"Cc1ccc(C(=O)C2=C(O)C(=O)N(c3ccc(C)nn3)C2c2ccc(OC(F)(F)F)cc2)cc1 (stereo not shown) [Example 22, 3-hydroxy-4-(4-methyl-benzoyl)-1-(6-methyl-pyridazin-3-yl)-5-(4-trifluoromethoxy-phenyl)-1,5-dihydro-pyrrol-2-one]",269,0.6,0.5,–,–,–
"Cc1ccc(N2C(=O)C(O)=C(C(=O)c3ccc(OC(F)(F)F)cc3)C2c2ccc(C(C)C)cc2)nn1 (stereo not shown) [Example 25, 3-hydroxy-5-(4-isopropyl-phenyl)-1-(6-methyl-pyridazin-3-yl)-4-(4-trifluoromethoxy-benzoyl)-1,5-dihydro-pyrrol-2-one]",269,0.5,0.2,–,–,–
"Cc1ccc(N2C(=O)C(O)=C(C(=O)c3ccc(OC(F)(F)F)cc3)C2c2ccc(OC(F)(F)F)cc2)nn1 (stereo not shown) [Example 96, 3-hydroxy-1-(6-methyl-pyridazin-3-yl)-4-(4-trifluoromethoxy-benzoyl)-5-(4-trifluoromethoxy-phenyl)-1,5-dihydro-pyrrol-2-one]",–,–,< 1,< 1,–,–
"Cc1ccc(N2C(=O)C(O)=C(C(=O)c3ccc(C(C)C)cc3)C2c2ccc(C(F)(F)F)nc2)nn1 (stereo not shown) [Example 98, 3-hydroxy-4-(4-isopropyl-benzoyl)-1-(6-methyl-pyridazin-3-yl)-5-(6-trifluoromethyl-pyridin-3-yl)-1,5-dihydro-pyrrol-2-one]",–,–,< 10,< 10,–,–
"Cc1ccc(N2C(=O)C(O)=C(C(=O)c3ccc(C(C)C)cc3)C2c2ccc(C(F)(F)F)cn2)nn1 (stereo not shown) [Example 106, 3-hydroxy-4-(4-isopropyl-benzoyl)-1-(6-methyl-pyridazin-3-yl)-5-(5-trifluoromethyl-pyridin-2-yl)-1,5-dihydro-pyrrol-2-one]",–,–,< 10,< 10,–,–
"CCOc1ccc(C2C(C(=O)c3ccc(C(C)C)cc3)=C(O)C(=O)N2c2ccc(C)nn2)cn1 (stereo not shown) [Example 110, 5-(6-ethoxy-pyridin-3-yl)-3-hydroxy-4-(4-isopropyl-benzoyl)-1-(6-methyl-pyridazin-3-yl)-1,5-dihydro-pyrrol-2-one]",–,–,< 1,< 1,–,–
"Cc1ccc(N2C(=O)C(O)=C(C(=O)c3ccc(C(C)C)cc3)C2c2ccc(C(C)C)cn2)nn1 (stereo not shown) [Example 111, 3-Hydroxy-4-(4-isopropyl-benzoyl)-5-(5-isopropyl-pyridin-2-yl)-1-(6-methyl-pyridazin-3-yl)-1,5-dihydro-pyrrol-2-one]",–,–,< 10,< 10,–,–
"Cc1ccc(N2C(=O)C(O)=C(C(=O)c3ccc(OC(C)C)cc3)C2c2ccc(OC(F)(F)F)cc2)nn1 (stereo not shown) [Example 115, 3-hydroxy-4-(4-isopropoxy-benzoyl)-1-(6-methyl-pyridazin-3-yl)-5-(4-trifluoromethoxy-phenyl)-1,5-dihydro-pyrrol-2-one]",–,–,< 10,< 10,–,–
"CC(C)c1ccc(C(=O)C2=C(O)C(=O)N(c3ccc(Cl)nn3)C2c2ccc(OC(F)(F)F)cc2)cc1 (stereo not shown) [Example 118, 1-(6-chloro-pyridazin-3-yl)-3-hydroxy-4-(4-isopropyl-benzoyl)-5-(4-trifluoromethoxy-phenyl)-1,5-dihydro-pyrrol-2-one]",–,–,< 1,< 1,–,–
"C#Cc1ccc(C2C(C(=O)c3ccc(C(C)C)cc3)=C(O)C(=O)N2c2ccc(C)nn2)cc1 (stereo not shown) [Example 137, 5-(4-ethynyl-phenyl)-3-hydroxy-4-(4-isopropyl-benzoyl)-1-(6-methyl-pyridazin-3-yl)-1,5-dihydro-pyrrol-2-one]",–,–,< 10,< 10,–,–
"Cc1ccc(N2C(=O)C(NS(C)(=O)=O)=C(C(=O)c3ccc(C(C)C)cc3)C2c2ccc(OC(F)(F)F)cc2)nn1 (stereo not shown) [Example 149, N-[4-(4-isopropyl-benzoyl)-1-(6-methyl-pyridazin-3-yl)-2-oxo-5-(4-trifluoromethoxy-phenyl)-2,5-dihydro-1H-pyrrol-3-yl]-methanesulfonamide]",–,–,< 1,< 1,–,–
"CCOc1ccc(C2C(C(=O)c3ccc(C(C)C)cc3)=C(O)C(=O)N2c2ccc(C)nn2)cn1 (stereo not shown) [Example 155, 2-ethoxy-5-[4-hydroxy-3-(4-isopropyl-benzoyl)-1-(6-methyl-pyridazin-3-yl)-5-oxo-2,5-dihydro-1H-pyrrol-2-yl]-pyridinium; chloride]",–,–,–,–,< 1,< 1
"Cc1ccc(N2C(=O)C(O)=C(C(=O)c3ccc(C(C)C)cc3)C2c2ccc(C(C)(F)F)cc2)nn1 (stereo not shown) [Example 158, 5-[4-(1,1-difluoro-ethyl)phenyl]-3-hydroxy-4-(4-isopropyl-benzoyl)-1-(6-methyl-pyridazin-3-yl)-1,5-dihydro-pyrrol-2-one]",–,–,< 1,< 0.1,–,–
"Cc1ccc(N2C(=O)C(O)=C(C(=O)c3ccc(C(F)(F)F)cc3)C2c2ccc(OC(F)(F)F)cc2)nn1 (stereo not shown) [Example 162, 3-hydroxy-1-(6-methyl-pyridazin-3-yl)-5-(4-trifluoromethoxy-phenyl)-4-(4-trifluoromethyl-benzoyl)-1,5-dihydro-pyrrol-2-one]",–,–,< 10,< 1,–,–
"Cc1ccc(N2C(=O)C(O)=C(C(=O)c3ccc(OC(F)(F)F)cc3)C2c2ccc(OC(C)C)nc2)nn1 (stereo not shown) [Example 169, 3-hydroxy-5-(6-isopropoxy-pyridin-3-yl)-1-(6-methyl-pyridazin-3-yl)-4-(4-trifluoromethoxy-benzoyl)-1,5-dihydro-pyrrol-2-one]",–,–,< 1,< 1,–,–
"CCOc1ccc([C@@H]2C(C(=O)c3ccc(C(C)C)cc3)=C(O)C(=O)N2c2ccc(C)nn2)cn1 [Example 192, 5(R)-(6-ethoxy-pyridin-3-yl)-3-hydroxy-4-(4-isopropyl-benzoyl)-1-(6-methyl-pyridazin-3-yl)-1,5-dihydro-pyrrol-2-one]",–,–,< 1,< 1,–,–
"Cc1ccc(N2C(=O)C(O)=C(C(=O)c3ccc(C(C)C)cc3)[C@H]2c2ccc(C(F)(F)F)nc2)nn1 [Example 195, 3-hydroxy-4-(4-isopropyl-benzoyl)-1-(6-methyl-pyridazin-3-yl)-5(R)-(6-trifluoromethyl-pyridin-3-yl)-1,5-dihydro-pyrrol-2-one]",–,–,< 1,< 1,–,–
"Cc1ccc(N2C(=O)C(O)=C(C(=O)c3ccc(C(C)C)cc3)[C@H]2c2ccc(C(C)(F)F)cc2)nn1 [Example 196, 5(R)-[4-(1,1-difluoro-ethyl)-phenyl]-3-hydroxy-4-(4-isopropyl-benzoyl)-1-(6-methyl-pyridazin-3-yl)-1,5-dihydro-pyrrol-2-one]",–,–,< 1,< 1,–,–
"Cc1ccc(N2C(=O)C(NS(C)(=O)=O)=C(C(=O)c3ccc(C(C)C)cc3)[C@H]2c2ccc(OC(F)(F)F)cc2)nn1 [Example 198, N-[4-(4-isopropyl-benzoyl)-1-(6-methyl-pyridazin-3-yl)-2-oxo-5(R)-(4-trifluoromethoxy-phenyl)-2,5-dihydro-1H-pyrrol-3-yl]-methanesulfonamide]",–,–,< 1,< 1,–,–
